# Experimental data from patent US10023593B2, “ALK kinase inhibitor, and preparation method and uses thereof” (BEIJING PEARL BIOTECHNOLOGY LIMITED LIABILITY COMPANY, priority 2014, dated 2018).
# Assays:
# L1196M mutant ALK kinase = target: T1, L1196M mutant ALK kinase (Homo sapiens, UniProt Q9UM73, L1196M); assay: HTRF KinEASE-TK assay, inhibitory activity on L1196M mutant ALK kinase; type: biochemical; conditions: L1196M mutant ALK 1 ng/μl, substrate 1 μM, ATP 5 μM, 30° C. 35 minutes, read-out: Inhibition on ALK kinases (L1196M mutant), IC50
# T1 construct: purchased Sino-US Crown Bioscience, Inc. batch number ALKm_20110923
# In short: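 HTRF TK assay: mutant kinase 1 ng/μl, substrate 1 μM, ATP 5 μM, 5 mM MgCl2, 1 mM DTT, 1% DMSO, 35 min at 30 °C. 665/615 ratio read; inhibition normalised to no-compound and 10.4 μM LDK-378 controls; IC50 from curve fit.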
# cytochrome P450 2C9 = cytochrome P450 2C9 (Homo sapiens, UniProt P11712); assay: Inhibitory activity on cytochrome P450 2C9; type: in vitro ADME; conditions: no significant inhibition
# cytochrome P450 2C19 = cytochrome P450 2C19 (Homo sapiens, UniProt P33261); assay: Inhibitory activity on cytochrome P450 2C19; type: in vitro ADME; conditions: no significant inhibition
# Karpas-299 cell line = assay: CellTiter-Glo cell proliferation inhibition on Karpas-299 cell line; type: cell-based; conditions: Homo sapiens, 96 h, Karpas-299 cells, 5000 cells/well, 4 days drug treatment
# In short: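 Karpas-299 cells (5000/well, RPMI-1640 + 10% FBS) pre-incubated 2 h at 37 °C, then treated with compound (0.5% DMSO final) for 4 days. Viability read by CellTiter-Glo luminescence; inhibition calculated against DMSO control, IC50 fitted.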
# cytochrome P450 1A2 = target: T2, cytochrome P450 1A2 (Homo sapiens, UniProt P05177); assay: Inhibitory activity on cytochrome P450 1A2; type: in vitro ADME; conditions: no significant inhibition
# T2 sequence (P05177 1-516): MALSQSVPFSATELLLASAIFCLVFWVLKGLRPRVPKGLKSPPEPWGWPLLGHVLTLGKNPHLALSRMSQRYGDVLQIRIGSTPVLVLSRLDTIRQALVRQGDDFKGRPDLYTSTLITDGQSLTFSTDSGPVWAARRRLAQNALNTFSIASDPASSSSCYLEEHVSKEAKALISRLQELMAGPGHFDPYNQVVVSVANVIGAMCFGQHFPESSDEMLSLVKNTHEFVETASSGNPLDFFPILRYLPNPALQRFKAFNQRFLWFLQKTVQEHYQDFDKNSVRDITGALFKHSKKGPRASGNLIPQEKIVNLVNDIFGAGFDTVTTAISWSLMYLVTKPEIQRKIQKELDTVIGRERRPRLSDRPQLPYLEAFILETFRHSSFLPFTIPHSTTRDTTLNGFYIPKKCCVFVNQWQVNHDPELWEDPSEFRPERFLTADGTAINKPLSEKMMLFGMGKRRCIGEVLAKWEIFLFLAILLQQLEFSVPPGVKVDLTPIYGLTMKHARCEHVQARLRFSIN
# cytochrome P450 2D6 = cytochrome P450 2D6 (Homo sapiens, UniProt P10635); assay: Inhibitory activity on cytochrome P450 2D6; type: in vitro ADME; conditions: no significant inhibition
# Chain of cytochrome P450 2D6 (P10635 whole entry): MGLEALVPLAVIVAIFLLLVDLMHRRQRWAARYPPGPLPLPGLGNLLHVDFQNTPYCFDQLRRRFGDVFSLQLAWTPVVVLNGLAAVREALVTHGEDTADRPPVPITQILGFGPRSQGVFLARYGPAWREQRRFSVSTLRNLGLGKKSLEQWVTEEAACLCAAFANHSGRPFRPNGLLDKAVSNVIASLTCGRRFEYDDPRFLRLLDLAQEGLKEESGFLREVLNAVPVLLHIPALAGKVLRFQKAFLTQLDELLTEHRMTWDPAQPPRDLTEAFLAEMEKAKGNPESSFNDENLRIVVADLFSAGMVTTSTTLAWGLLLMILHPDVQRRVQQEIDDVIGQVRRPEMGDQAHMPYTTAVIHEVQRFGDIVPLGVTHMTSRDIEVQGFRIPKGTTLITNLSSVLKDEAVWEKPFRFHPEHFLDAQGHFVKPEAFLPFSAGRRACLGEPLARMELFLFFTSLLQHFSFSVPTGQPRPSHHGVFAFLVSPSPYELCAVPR
# Chain of cytochrome P450 2C9 (P11712 whole entry): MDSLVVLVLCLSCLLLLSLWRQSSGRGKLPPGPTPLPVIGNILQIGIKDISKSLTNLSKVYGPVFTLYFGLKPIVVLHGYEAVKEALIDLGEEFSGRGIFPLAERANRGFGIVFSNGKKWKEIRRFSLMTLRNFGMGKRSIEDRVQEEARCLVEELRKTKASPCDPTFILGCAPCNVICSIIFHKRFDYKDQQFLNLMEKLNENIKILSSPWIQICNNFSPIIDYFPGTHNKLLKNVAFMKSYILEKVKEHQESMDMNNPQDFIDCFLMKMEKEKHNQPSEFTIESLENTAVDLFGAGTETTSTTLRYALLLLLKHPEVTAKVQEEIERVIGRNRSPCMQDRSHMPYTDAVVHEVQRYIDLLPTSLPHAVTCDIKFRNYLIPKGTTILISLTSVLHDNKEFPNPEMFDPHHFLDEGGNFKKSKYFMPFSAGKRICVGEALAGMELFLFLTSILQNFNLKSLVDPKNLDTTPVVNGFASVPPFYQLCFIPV
# T1 sequence (Q9UM73 19-1620 L1196M): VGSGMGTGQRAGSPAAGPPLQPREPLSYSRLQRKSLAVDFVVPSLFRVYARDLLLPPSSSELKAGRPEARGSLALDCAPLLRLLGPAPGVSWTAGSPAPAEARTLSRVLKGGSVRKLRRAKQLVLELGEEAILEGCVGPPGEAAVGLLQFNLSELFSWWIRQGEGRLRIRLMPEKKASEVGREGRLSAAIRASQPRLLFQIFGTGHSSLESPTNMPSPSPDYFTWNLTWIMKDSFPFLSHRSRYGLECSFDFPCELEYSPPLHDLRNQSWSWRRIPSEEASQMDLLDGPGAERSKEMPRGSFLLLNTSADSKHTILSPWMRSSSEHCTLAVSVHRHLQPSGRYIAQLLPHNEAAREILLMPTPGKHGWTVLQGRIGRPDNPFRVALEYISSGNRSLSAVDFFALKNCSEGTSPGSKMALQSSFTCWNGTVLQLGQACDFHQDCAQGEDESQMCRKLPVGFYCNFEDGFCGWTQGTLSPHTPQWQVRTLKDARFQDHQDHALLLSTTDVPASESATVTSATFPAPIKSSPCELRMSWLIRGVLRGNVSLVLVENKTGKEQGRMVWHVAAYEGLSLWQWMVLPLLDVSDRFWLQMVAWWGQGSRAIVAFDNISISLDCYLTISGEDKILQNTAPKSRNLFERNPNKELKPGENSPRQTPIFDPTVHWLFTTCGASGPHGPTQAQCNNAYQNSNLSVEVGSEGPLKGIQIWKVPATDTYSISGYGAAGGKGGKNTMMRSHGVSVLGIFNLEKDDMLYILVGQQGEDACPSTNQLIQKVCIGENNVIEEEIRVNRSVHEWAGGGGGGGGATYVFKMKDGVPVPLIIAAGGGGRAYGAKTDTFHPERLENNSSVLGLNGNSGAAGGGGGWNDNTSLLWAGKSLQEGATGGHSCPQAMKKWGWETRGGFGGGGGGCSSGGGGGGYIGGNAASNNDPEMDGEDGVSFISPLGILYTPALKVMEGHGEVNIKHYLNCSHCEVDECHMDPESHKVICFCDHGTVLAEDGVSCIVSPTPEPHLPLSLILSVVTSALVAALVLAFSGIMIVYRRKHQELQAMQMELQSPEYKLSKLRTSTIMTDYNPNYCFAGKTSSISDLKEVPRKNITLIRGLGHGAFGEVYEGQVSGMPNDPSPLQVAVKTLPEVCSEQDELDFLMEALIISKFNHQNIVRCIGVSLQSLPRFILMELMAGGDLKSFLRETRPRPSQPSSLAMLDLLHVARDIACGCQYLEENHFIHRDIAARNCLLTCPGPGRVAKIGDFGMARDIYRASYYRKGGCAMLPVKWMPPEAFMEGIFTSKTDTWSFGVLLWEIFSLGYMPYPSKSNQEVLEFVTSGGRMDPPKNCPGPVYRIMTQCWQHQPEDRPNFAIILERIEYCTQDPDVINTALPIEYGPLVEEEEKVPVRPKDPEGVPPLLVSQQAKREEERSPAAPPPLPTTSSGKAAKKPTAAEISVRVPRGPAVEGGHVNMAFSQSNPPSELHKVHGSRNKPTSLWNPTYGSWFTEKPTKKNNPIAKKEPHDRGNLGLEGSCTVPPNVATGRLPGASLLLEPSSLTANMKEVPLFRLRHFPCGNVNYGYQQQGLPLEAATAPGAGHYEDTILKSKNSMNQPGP
# Chain of cytochrome P450 2C19 (P33261 whole entry): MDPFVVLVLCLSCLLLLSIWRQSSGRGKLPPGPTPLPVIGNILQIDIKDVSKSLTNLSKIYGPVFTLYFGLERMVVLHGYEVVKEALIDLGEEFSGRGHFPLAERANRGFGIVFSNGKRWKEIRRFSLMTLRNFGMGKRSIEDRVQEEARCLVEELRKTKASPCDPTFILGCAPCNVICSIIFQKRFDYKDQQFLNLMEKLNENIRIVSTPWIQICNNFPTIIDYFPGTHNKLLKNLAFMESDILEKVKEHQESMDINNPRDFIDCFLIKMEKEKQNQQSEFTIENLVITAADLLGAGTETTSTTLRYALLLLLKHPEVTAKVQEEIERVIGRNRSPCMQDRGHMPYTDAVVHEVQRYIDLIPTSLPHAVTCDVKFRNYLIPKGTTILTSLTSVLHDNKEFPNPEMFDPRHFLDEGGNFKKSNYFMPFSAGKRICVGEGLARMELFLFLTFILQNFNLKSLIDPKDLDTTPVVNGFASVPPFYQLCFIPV
Compound,IC50 (L1196M mutant ALK kinase) [nM],IC50 (cytochrome P450 2C9) [nM],IC50 (cytochrome P450 2C19) [nM],IC50 (Karpas-299 cell line) [nM],IC50 (cytochrome P450 1A2) [nM],IC50 (cytochrome P450 2D6) [nM]
"Cc1cc(Nc2ncc(Cl)c(Nc3cn(C)nc3S(=O)(=O)C(C)C)n2)c(OC2CC2)cc1C1CCN(CCO)CC1 [Final product 133, 2-(4-(4-(5-chloro-4-(3-(isopropylsulfonyl)-1-methyl-1H-pyrazol-4-amino)pyrimidin-2-amino)-5-cyclopropoxy-2-methylphenyl)piperidin-1-yl) ethanol]",6,> 10000,> 10000,4,> 10000,> 10000
CC(=O)N1CCN([C@H]2CC[C@H](c3cc(OC4CC4)c(Nc4ncc(Cl)c(Nc5cn(C)nc5S(=O)(=O)C(C)C)n4)cc3C)CC2)CC1 [Final product 204],18,> 10000,> 10000,7,> 10000,> 10000
Cc1cc(Nc2ncc(Cl)c(Nc3cn(C)nc3S(=O)(=O)C(C)C)n2)c(OC2CC2)cc1C1CCOCC1 [Final product 107],19,,,18,,
CC(C)S(=O)(=O)c1nn(C2CC2)cc1Nc1nc(Nc2cc(F)c(C3CCN(C)CC3)cc2OC2CC2)ncc1Cl [Final product 46],6,> 10000,> 10000,,> 10000,> 10000
CC(C)S(=O)(=O)c1nn(C)cc1Nc1nc(Nc2ccc(C3CCN(C)CC3)cc2OC(F)(F)F)ncc1Cl [Final product 30],18,,,25,,
Cc1cc(Nc2ncc(Cl)c(Nc3cn(C)nc3S(=O)(=O)C(C)C)n2)c(C(F)(F)F)cc1C1CCNCC1 [Final product 11],39,,,61,,
Cc1cc(Nc2ncc(Cl)c(Nc3cn(C)nc3S(=O)(=O)CC(C)C)n2)c(OC2CC2)cc1C1CCN(CCO)CC1 [Final product 137],11,,,12,,
Cc1cc(Nc2ncc(Cl)c(Nc3cn(C)nc3S(=O)(=O)C(C)C)n2)c(OC(CF)CF)cc1C1CCNCC1 [Final product 8],10,,,67,,
CC(C)S(=O)(=O)c1nn(C)cc1Nc1nc(Nc2cc(C#N)c(C3CCNCC3)cc2OC2CC2)ncc1Cl [Final product 29],7,,,35,,
CCN1CCC(c2cc(OC(C)C)c(Nc3ncc(Cl)c(Nc4cn(C)nc4S(=O)(=O)C(C)C)n3)cc2C)CC1 [Final product 118],10,,,9,,
"CCNC(=O)N1CCC(c2cc(OC3CC3)c(Nc3ncc(Cl)c(Nc4cn(C)nc4S(=O)(=O)C(C)C)n3)cc2C)CC1 [Final product 174, 4-(4-(5-chloro-4-(3-(isopropylsulfonyl)-1-methyl-1H-pyrazol-4-amine)pyrimidin-2-amine)-5-cyclopropoxy-2-methyl-phenyl)-N-ethyl-piperidin-1-carboxamide]",6,,,20,,
Cc1cc(Nc2ncc(Cl)c(Nc3cn(C4CC4)nc3S(=O)(=O)C(C)C)n2)c(OC(C)C)cc1C1CCNCC1 [Final product 5],12,,,37,,
CC(C)S(=O)(=O)c1nn(C2CC2)cc1Nc1nc(Nc2cc(F)c(C3CCNCC3)cc2OC2CC2)ncc1Cl [Final product 21],2,,,10,,
CCC(C)S(=O)(=O)c1nn(C)cc1Nc1nc(Nc2cc(C)c(C3CCNCC3)cc2OC(C)C)ncc1Cl (stereo not shown) [Final product 7],12,,,21,,
CCOc1cc(C2CCN(CCO)CC2)c(C)cc1Nc1ncc(Cl)c(Nc2cn(C)nc2S(=O)(=O)C(C)C)n1 [Final product 135],7,,,3,,
"Cc1cc(Nc2ncc(Cl)c(Nc3cn(C)nc3S(=O)(=O)C(C)C)n2)c(OC2CC2)cc1C1CCN(C(=O)CN(C)C)CC1 [Final product 165, 1-(2-dimethylamino)acetyl-4-(4-(5-chloro-4-(3-(isopropylsulfonyl)-1-methyl-1H-pyrazol-4-amino)pyrimidin-2-amino)-5-cyclopropoxy-2-methylphenyl)piperidine]",3,,,3,,
Cc1cc(Nc2ncc(Cl)c(Nc3cn(C)nc3S(=O)(=O)C(C)C)n2)c(OC(C)C)cc1C1CNC1 [Final product 4],13,,,60,,
Cc1cc(Nc2ncc(Cl)c(Nc3cn(C)nc3S(=O)(=O)C(C)C)n2)c(OCC2CC2)cc1C1CCNCC1 [Final product 12],17,,,43,,
Cc1cc(Nc2ncc(Cl)c(Nc3cn(C)nc3S(=O)(=O)C(C)C)n2)c(OC(C)C)cc1C1CCN(C(C)(C)CO)CC1 [Final product 152],9,,,7,,

Compound,IC50 (L1196M mutant ALK kinase) [nM],IC50 (cytochrome P450 2C9) [nM],IC50 (cytochrome P450 2C19) [nM],IC50 (Karpas-299 cell line) [nM],IC50 (cytochrome P450 1A2) [nM],IC50 (cytochrome P450 2D6) [nM]
Cc1cc(Nc2ncc(Cl)c(Nc3cn(C)nc3S(=O)(=O)C(C)C)n2)c(OC(C)C)cc1C1CN(S(C)(=O)=O)C1 [Final product 168],25,,,68,,
Cc1cc(Nc2ncc(Cl)c(Nc3cn(C)nc3S(=O)(=O)C(C)C)n2)c(OC2CC2)cc1[C@H]1CC[C@H](NC2CC2)CC1 [Final product 196],18,,,9,,
CC(C)S(=O)(=O)c1nn(C2CC2)cc1Nc1nc(Nc2cc(Cl)c(C3CCN(C)CC3)cc2OC2CC2)ncc1Cl [Final product 48],5,,,41,,
Cc1cc(Nc2ncc(Cl)c(Nc3cn(C)nc3S(=O)(=O)C(C)C)n2)c(OC(C)C)cc1[C@H]1CC[C@H](NC(C)C)CC1 [Final product 188],8,,,10,,
CC(C)S(=O)(=O)c1nn(C)cc1Nc1nc(Nc2cc(C#N)c(C3CCN(C)CC3)cc2OC2CC2)ncc1Cl [Final product 49],13,,,100,,
Cc1cc(Nc2ncc(Cl)c(Nc3cn(C)nc3S(=O)(=O)C(C)C)n2)c(OC2CC2)cc1OC1CCN(C)CC1 [Final product 111],7,,,16,,
Cc1cc(Nc2ncc(Cl)c(Nc3cn(C)nc3S(=O)(=O)CC(C)C)n2)c(OC2CC2)cc1[C@H]1CC[C@H](NC2CC2)CC1 [Final product 180],40,,,26,,
CC(C)S(=O)(=O)c1nn(C)cc1Nc1nc(Nc2ccc(C3CCNCC3)cc2OC2CC2)ncc1Cl [Final product 13],7,,,7,,
Cc1cc(Nc2ncc(Cl)c(Nc3cn(C)nc3S(=O)(=O)CC(C)C)n2)c(OC2CC2)cc1C1CCNCC1 [Final product 28],15,,,19,,
CC(C)S(=O)(=O)c1nn(C2CC2)cc1Nc1nc(Nc2ccc(C3CCN(S(C)(=O)=O)CC3)cc2OC2CC2)ncc1Cl [Final product 173],28,,,19,,
CC(C)S(=O)(=O)c1nn(C)cc1Nc1nc(Nc2ccc(C3CCNCC3)cc2OC(F)(F)F)ncc1Cl [Final product 9],35,,,119,,
Cc1cc(Nc2ncc(Cl)c(Nc3cn(C)nc3S(=O)(=O)CC(C)C)n2)c(OC2CC2)cc1C1CN(S(C)(=O)=O)C1 [Final product 171],156,,,69,,
"Cc1cc(Nc2ncc(Cl)c(Nc3cn(C)nc3S(=O)(=O)C(C)C)n2)c(OC2CC2)cc1C1=C(Cl)CN(C)CC1 [Final product 208, 5-chloro-N^2-[4-(5-chloro-1-methyl-1,2,3,6-tetrahydro-pyridin-4-yl)-2-cyclopropoxy-5-methyl-phenyl]-N^4-[1-methyl-3-(isopropylsulfonyl)-1H-pyrazol-4-yl]-pyrimidin-2,4-diamine]",36,,,35,,
CC(C)S(=O)(=O)c1nn(C2CC2)cc1Nc1nc(Nc2ccc(C3CCN(C)CC3)cc2OC(F)(F)F)ncc1Cl [Final product 38],18,,,22,,
Cc1cc(Nc2ncc(Cl)c(Nc3cn(C)nc3S(=O)(=O)C(C)C)n2)c(OC2CC2)cc1[C@H]1CC[C@H](NC(C)C)CC1 [Final product 198],9,,,5,,
CC(C)S(=O)(=O)c1nn(C2CC2)cc1Nc1nc(Nc2ccc(C3CCNCC3)cc2OC2CC2)ncc1Cl [Final product 16],7,,,8,,
Cc1cc(Nc2ncc(Cl)c(Nc3cn(C)nc3S(=O)(=O)C(C)C)n2)c(OC2CC2)cc1C1=CCN(C)CC1 [Final product 50],7,,,11,,
CC(C)S(=O)(=O)c1nn(C)cc1Nc1nc(Nc2cc(F)c(C3CCN(C)C3)cc2OC2CC2)ncc1Cl (stereo not shown) [Final product 45],10,,,19,,
